Experimental data reported in patent EP0154476A2, “Steroid compound” (STERWIN AG., priority 1984, dated 1985).

Legend:
[1] = cytochemical bioassay in unfixed tissue sections of dioestrous rat ovary (formazan dye absorbance); assay type: biochemical; conditions: versus trilostane, weight for weight basis, standard curves 0.15 to 2.5 µM (nM), 95% confidence 1.4-2.1
Protocol: In a first study, a cytochemical bioassay was employed to determine the relative potency of the 17- keto trilostane metabolite versus trilostane, in three experiments. From the results obtained, standard curves covering the range from 0.15 to 2.5nM were prepared for the metabolite and the parent compound. Potency estimates were calculated by computer analysis of the relative slopes and errors around each dose point.
The cytochemical bioassay is based upon the reaction, within serial unfixed tissue sections of the dioestrous rat ovary, between the enzyme, […] -A^5-3-oxosteroid isomerase (38 HSD) contained therein, and added substrate, cofactors and a colourless tetrazolium salt. The reaction leads to the deposition of an intensely coloured blue insoluble formazan dye in the sections, and the amount of dye produced within a section over a given period (absorbance) is measured by means of a scanning integrating densitometer. If an inhibitor of 3a HSD, such as trilostane or 17-keto trilostane metabolite is added to the system, the amount of blue dye formed will be reduced.
The bioassay curves obtained are as shown in Figure 1 of the accompanying drawings, results being expressed as the mean +SD(n=4).

plasma cortisol = plasma cortisol by radioimmunoassay after oral trilostane in volunteers; assay type: in vivo, healthy male volunteers; conditions: trilostane 2 x 60 mg capsules orally, fasted, plasma up to 8 hours; during sustained plasma peaks of trilostane and 17-keto metabolite

| Compound | relative in vitro potency compared with the parent compound [1] | relative in vitro potency compared with the parent compound ([1]; listed as metabolite) | cortisol secretion (plasma cortisol) |
| --- | --- | --- | --- |
| C[C@]12CC[C@H]3[C@@H](CC[C@@]45O[C@@H]4C(=O)[C@H](C#N)C[C@]35C)[C@@H]1CCC2=O [17-keto metabolite, 2α-cyano-4α,5α-epoxyandrostan-3,17-dione] | about 1.7 times | 1.71 times | – |
| C[C@]12CC[C@H]3[C@@H](CC[C@@]45O[C@@H]4C(O)=C(C#N)C[C@]35C)[C@@H]1CC[C@@H]2O [trilostane, 2a-cyano-4a,5a-epoxyandrostan-17a-ol-3-one] | – | – | suppressed |
